Data taken from PMC8958505, “Discovery of Potential Neuroprotective Agents against Paclitaxel-Induced Peripheral Neuropathy” (Journal of Medicinal Chemistry, 2022).
Structures can show the parent of a compound that is named as a salt. Where two headings read alike, the source gives them in different places.

Assays:
[1] = system: mouse primary DRG neurons; assay: Neurite outgrowth assay of DRG neurons (image-based HCS) against paclitaxel-induced neurotoxicity; type: cell-based; details: for activation at 1 µM: Mus musculus, DRG neuron
Method: All these 19 compounds were then subjected to the neurite outgrowth assay of dorsal root ganglion (DRG) neurons paired with an image-based HCS to analyze whether they had neuroprotective potential. Quantification of neurite outgrowth under different regimens is shown in Figure 3, wherein DRG neurons incubated in 50 nM paclitaxel could cause 60% reduction in neurite outgrowth compared to the control (no drug treatment). […] Taken together, CN016 is selected as a promising lead for further development.
Primary cortical or DRG cells were fixed with 4% paraformaldehyde for 15 min following compound and paclitaxel treatment. After washing with PBS, the fixed cells were permeabilized with PBS containing 0.05% Triton X-100 for 20 min and then blocked with commercial blocking buffer (#GTX30963; GeneTex, USA) at room temperature for 1 h. Subsequently, the cortical cells were stained for the extending processes and synaptic puncta by using anti-MAP2 (#MBS502140, 1:500; Mybiosource, USA) and anti-synaptophysin (#ab32127, 1:500; Abcam, UK) overnight. DRG cells were stained for the neurite and neuron nucleus by using anti-β III tubulin (#D71G9, 1:600; Cell Signaling, USA) and anti-NeuN monoclonal antibody (#MAB377, 1:400; Millipore, USA) overnight. On the second day, the samples were washed for 30 min with wash buffer and incubated with secondary antibodies (Alexa-488, 647 1:600; Thermo Fisher, USA) and 4 μg/mL Hoechst 33258 (#94403-1ML, 1:100; Merck, USA) at room temperature for 1 h. In the initial experiments of screening the potential neuroprotective compound for CIPN, ImageXpress^Micro (IXM) high-content imaging system (Molecular Devices, USA) driven by MetaXpress software was used. Images of treated cells were automatically acquired by using a 10× objective. Twenty-one images per well were taken in each of three channels (DAPI, FITC, and Cy5) to create a whole view of the entire neural network. The integrity of the neural network was evaluated using TIF images by importing them into MetaXpress software for analysis using the module for multiparameter, such as Neurite Outgrowth, Cell Scoring, and Transfluor. Furthermore, the score of synaptogenesis was analyzed in AcuityXpress software (Molecular Devices, USA).

[2] = system: sciatic nerve fibers; assay: Ultrastructure evaluation of the sciatic nerve (TEM); type: in vivo, mouse; details: paclitaxel 4.5 mg/kg x 4
Source text: Sciatic nerves were isolated from mice after drug treatment and behavioral tests to examine the ultrastructure of nerve fibers. […] To evaluate the integrity of myelin, we calculated the G-ratio (axon perimeter/myelin perimeter) in different treatment groups. Because the symptoms of PIPN mostly manifest with sensory impairment,[28] we roughly classified nerve fibers into larger fibers (diameter > 5 μm) and small fibers (diameter < 5 μm) depending on the type of sensory information conveyed.[29] Large fibers with greater than 5 μm diameter carry information related to proprioception, touch, and pressure. In contrast, small fibers with less than 5 μm diameter carry information related to temperature and pain.
Sciatic nerve samples from mice from each treatment group were isolated after the last time point of mouse behavioral tests. Fixation of sciatic nerves with 4% glutaraldehyde and post fixation with 1% osmium tetroxide solution at 4 °C were performed. […] Transmission electron microscopy (H7650, Hitachi) was used to observe the ultrastructure in the cross section of the sciatic nerves.

[3] = system: primary cortical neurons; assay: Synaptogenesis assay of primary cortical neurons (image-based HCS) against paclitaxel-induced neurotoxicity; type: cell-based, mouse; details: Mus musculus, Primary cortical neuron; test compound 1000 nM + paclitaxel 1 μM; mean ± SE; read-out: B: Synaptogenesis (% of control) of test compound (1000 nM) + paclitaxel (1 μM)
Method in brief: (§1)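 Cortical neurons from P0 C57BL/6J mouse pups pretreated with compound at 10 and 1000 nM before 1 μM paclitaxel. Cells fixed and immunostained for MAP2 (processes), synaptophysin (synaptic puncta) and Hoechst, then imaged by automated high-content microscopy at 10×. Neurite outgrowth and synaptogenesis scored from multiparameter image analysis.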

[4] = system: primary cortical neurons; assay: Neurite outgrowth assay of primary cortical neurons (image-based HCS) against paclitaxel-induced neurotoxicity; type: cell-based, mouse; details: Mus musculus, Primary cortical neuron; test compound 1000 nM + paclitaxel 1 μM; mean ± SE; read-out: D: Neurite outgrowth (% of control) of test compound (1000 nM) + paclitaxel (1 μM)
Method in brief: as §1

[5] = system: mice; set-up: method as in PMID 28349969; details: cited from earlier work
[6] = system: paclitaxel-induced neuropathy in mice; set-up: method as in PMID 28349969; details: up to 25 mg/kg; cited from earlier work
[7] = Table 1, A: neurite outgrowth (% of control) of test compound 1000 nM + paclitaxel 50 nM, B: paclitaxel 50 nM alone, DRG neurons, read-out: Neuroprotection rate = (A-B)±S.E.M [%]
[8] = Table S2, test compound 1000 nM + paclitaxel 50 nM minus paclitaxel 50 nM, read-out: Neuroprotection rate = (A-B) ± S.E.M [%]
[9] = supplementary CSV, test compound 1000 nM, read-out: A-B (A: neurite outgrowth (% of control) of test compound (1000 nM) + paclitaxel (50 nM), B: of paclitaxel (50 nM))

In the case of CC(=O)O[C@H]1C(=O)[C@@]2(C)[C@H]([C@H](OC(=O)c3ccccc3)[C@]3(O)C[C@H](OC(=O)[C@H](O)[C@@H](NC(=O)c4ccccc4)c4ccccc4)C(C)=C1C3(C)C)[C@]1(OC(C)=O)CO[C@@H]1C[C@@H]2O [paclitaxel, Paclitaxel], the “reduction in neurite outgrowth compared to the control” value ([1]; 50 nM paclitaxel, DRG neurons) is reported as 60% and the “fiber loss (myelinated fiber density)” value [2] is reported as 25%.
Work on Nc1cc(N2CCCCC2)nc(N)[n+]1[O-] [Minoxidil, reference compound] yielded an activity at 1 µM [3] of 58 ± 8%, an activity at 1 µM [4] of 66 ± 3% and an activation at 1 µM [1, 7] of 15 ± 1.41%. The dose causing hypotension [5] was 50 mg/kg, the dose causing tachycardia [5] was 25 mg/kg and the “protective effect on paclitaxel-induced neuropathy in behavior tests” value [6] was “no protective effect”.
In the case of COC(=O)CCOCCCn1cc(CNc2nc(NC3CCN(CCC(=O)OC)CC3)cc(N3CCOCC3)n2)nn1 [CN011, 3-{3-[4-({4-[1-(2-Methoxycarbonyl-ethyl)-piperidin-4-ylamino]-6-morpholin-4-yl-pyrimidin-2-ylamino}-methyl)-[1,2,3]triazol-1-yl]-propoxy}-propionic Acid Methyl Ester], the activation at 1 µM [1, 8] is reported as 4 ± 4.1% and the activation at 1 µM [1, 9] is reported as 4%.
With COC(=O)CCN1CCC(Nc2cc(N3CCOCC3)nc(NCCCCCCO)n2)CC1 [CN017, Methyl 3-(4-((2-((6-Hydroxyhexyl)amino)-6-morpholinopyrimidin-4-yl)amino)piperidin-1-yl)propanoate] the activation at 1 µM [1, 8] was 1 ± 0.51%, the activation at 1 µM [1, 9] was 1% and the “protective efficacy against paclitaxel-induced neurotoxicity (in words)” value ([1]; pretreated, + 50 nM paclitaxel, DRG neurons) was “inactive”.
CC(C)(O)CCn1cc(CNc2nc(NC3CCN(CCP(=O)(O)O)CC3)cc(N3CCOCC3)n2)nn1 [CN027, {2-[4-(2-{[1-(3-Hydroxy-3-methyl-butyl)-1H-[1,2,3]triazol-4-ylmethyl]-amino}-6-morpholin-4-yl-pyrimidin-4-ylamino)-piperidin-1-yl]-ethyl}-phosphonic Acid Hydrobromide Salt] showed an activation at 1 µM [1, 7] of 5 ± 0.93% and an activation at 1 µM [1, 9] of 5%.
